Assay: recombinant UMI read abundance after kanamycin selection (control-corrected) (log10(CPM+1)); higher = more efficient recombination; extreme values may be limits of the assay; sequences stand for … in AGTGCAGAGAAAATCGGCCAGTTTTCTCTGCCTGCAGTCCGCATGCCGTGGGACCCCTTGGGTTCTAACCTGTTGCCTAGATTTATGCAGCGGACTGCCTTTCTCCCAAAGTGATAAACCGG…AGGTTGGTTTCACT; site = the 11-nt donor
Summary of the method: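 Sequenced counts of recombinant UMIs were turned into CPM, averaged across replicates and scaled with control-derived factors. The reported figure is log10(CPM+1). Those UMIs, each 12 nt long, tagged donor and donor-binding-loop pairs on a plasmid with a promoterless kanamycin gene, screened as a pool in Escherichia coli with IPTG (0.07 mM) plus kanamycin or without selection.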
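Also: IS621 bridge recombinase in Escherichia coli cells against a fixed T5 target plasmid.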

| Sequence | recombinant UMI read abundance (log10) |
| --- | --- |
| AGGGAGTCATGGACCGGTTTTCCCGGTAATCCGTATTTGCC (site CGGGAGTCTGG) | 0.995 |
| AGGGAGTCATGGACCGGTTTTCCCGGTAATCCGTATTTGCC (site GGGGAGTCTGG) | 0 |
| AGGGAGTCATGGACCGGTTTTCCCGGTAATCCGTATTTGCC (site TGGGAGTCTGG) | 0.994 |
| AGGGCACCATGGACCGGTTTTCCCGGTAATCCGTATTTGCA (site AGGGCACCTTG) | 0.655 |
| AGGGCACCATGGACCGGTTTTCCCGGTAATCCGTATTTGCA (site CGGGCACCTTG) | 0 |
| AGGGCACCATGGACCGGTTTTCCCGGTAATCCGTATTTGCA (site GGGGCACCTTG) | 0 |
| AGGGCACCATGGACCGGTTTTCCCGGTAATCCGTATTTGCA (site TGGGCACCTTG) | 0 |
| AGGGCCTCATGGACCGGTTTTCCCGGTAATCCGTATTTGCT (site AGGGCCTCTAG) | 2.95 |
| AGGGGCGCATGGACCGGTTTTCCCGGTAATCCGTATTTGCC (site AGGGGCGCTGG) | 3.25 |
| AGGGGTCCATGGACCGGTTTTCCCGGTAATCCGTATTTGCT (site AGGGGTCCTAG) | 0.704 |
| AGGGTCACATGGACCGGTTTTCCCGGTAATCCGTATTTGAG (site AGGGTCACTCT) | 1.39 |
| AGGGTCCCATGGACCGGTTTTCCCGGTAATCCGTATTTGTG (site AGGATCCCTCA) | 0.239 |
| AGGGTCCCATGGACCGGTTTTCCCGGTAATCCGTATTTGTG (site AGGCTCCCTCA) | 0.0118 |
| AGGGTCCCATGGACCGGTTTTCCCGGTAATCCGTATTTGTG (site AGGGTCCCTCA) | 0.304 |
| AGGGTCCCATGGACCGGTTTTCCCGGTAATCCGTATTTGTG (site AGGTTCCCTCA) | 0.0182 |
| AGGGTGCCATGGACCGGTTTTCCCGGTAATCCGTATTTGGG (site AGGGTGCCTCC) | 0.0268 |
| AGGGTTCCATGGACCGGTTTTCCCGGTAATCCGTATTTGGT (site AGGGTTCCTAC) | 0.793 |
| AGGGTTTCATGGACCGGTTTTCCCGGTAATCCGTATTTGAA (site AGGGTTTCTTT) | 2.46 |
| AGGTACTCATGGACCGGTTTTCCCGGTAATCCGTATTTGAC (site AGGTACTCTGT) | 3.57 |
| AGGTAGACATGGACCGGTTTTCCCGGTAATCCGTATTTGAA (site AGGAAGACTTG) | 0 |
| AGGTAGACATGGACCGGTTTTCCCGGTAATCCGTATTTGAA (site AGGTAGACTTT) | 1.89 |
| AGGTCAGCATGGACCGGTTTTCCCGGTAATCCGTATTTGGG (site AGATCAGCTCC) | 0.0289 |
| AGGTCAGCATGGACCGGTTTTCCCGGTAATCCGTATTTGGG (site AGCTCAGCTCC) | 0.0149 |

| Sequence | recombinant UMI read abundance (log10) |
| --- | --- |
| AGGTCAGCATGGACCGGTTTTCCCGGTAATCCGTATTTGGG (site AGGTCAGCTCC) | 0.00675 |
| AGGTCAGCATGGACCGGTTTTCCCGGTAATCCGTATTTGGG (site AGTTCAGCTCC) | 0.0281 |
| AGGTCATCATGGACCGGTTTTCCCGGTAATCCGTATTTGCT (site AGGTCATCTAG) | 1.48 |
| AGGTCATCATGGACCGGTTTTCCCGGTAATCCGTATTTGCT (site CGATCATCTAG) | 0 |
| AGGTCGGCATGGACCGGTTTTCCCGGTAATCCGTATTTGGC (site AGGTCGGCTGC) | 2.13 |
| AGGTTCACATGGACCGGTTTTCCCGGTAATCCGTATTTGTG (site AGGTTCACTCA) | 0.0184 |
| AGGTTCACATGGACCGGTTTTCCCGGTAATCCGTATTTGTG (site AGGTTCCCTCA) | 0 |
| AGGTTCACATGGACCGGTTTTCCCGGTAATCCGTATTTGTG (site AGGTTCGCTCA) | 0.00639 |
| AGGTTCACATGGACCGGTTTTCCCGGTAATCCGTATTTGTG (site AGGTTCTCTCA) | 0.00699 |
| AGGTTCCCATGGACCGGTTTTCCCGGTAATCCGTATTTGCG (site AGGTTCCCTCA) | 0.0159 |
| AGGTTCCCATGGACCGGTTTTCCCGGTAATCCGTATTTGCG (site AGGTTCCCTCC) | 0.0204 |
| AGGTTCCCATGGACCGGTTTTCCCGGTAATCCGTATTTGCG (site AGGTTCCCTCG) | 0.236 |
| AGGTTCCCATGGACCGGTTTTCCCGGTAATCCGTATTTGCG (site AGGTTCCCTCT) | 0.00665 |
| AGGTTCCCATGGACCGGTTTTCCCGGTAATCCGTATTTGGT (site AGGTTCCCTAC) | 0.474 |
| AGGTTCTCATGGACCGGTTTTCCCGGTAATCCGTATTTGTG (site AGGTTCACTCA) | 0.205 |
| AGGTTCTCATGGACCGGTTTTCCCGGTAATCCGTATTTGTG (site AGGTTCCCTCA) | 0.22 |
| AGGTTCTCATGGACCGGTTTTCCCGGTAATCCGTATTTGTG (site AGGTTCGCTCA) | 0.0171 |
| AGGTTCTCATGGACCGGTTTTCCCGGTAATCCGTATTTGTG (site AGGTTCTCTCA) | 2.32 |
| AGGTTTCCATGGACCGGTTTTCCCGGTAATCCGTATTTGTG (site AGGTTACCTCA) | 0.0337 |
| AGGTTTCCATGGACCGGTTTTCCCGGTAATCCGTATTTGTG (site AGGTTCCCTCA) | 0.192 |
| AGGTTTCCATGGACCGGTTTTCCCGGTAATCCGTATTTGTG (site AGGTTGCCTCA) | 0.00446 |
| AGGTTTCCATGGACCGGTTTTCCCGGTAATCCGTATTTGTG (site AGGTTTCCTCA) | 0.271 |
| AGTAACGCATGGACCGGTTTTCCCGGTAATCCGTATTTGGG (site AGTAACGCTCC) | 0.161 |

| Sequence | recombinant UMI read abundance (log10) |
| --- | --- |
| AGTAAGACATGGACCGGTTTTCCCGGTAATCCGTATTTGAG (site AGTAAGACTCT) | 1.72 |
| AGTAAGACATGGACCGGTTTTCCCGGTAATCCGTATTTGCA (site AGAAAGACTTG) | 1.66 |
| AGTAAGACATGGACCGGTTTTCCCGGTAATCCGTATTTGCA (site AGCAAGACTTG) | 2.39 |
| AGTAAGACATGGACCGGTTTTCCCGGTAATCCGTATTTGCA (site AGGAAGACTTG) | 1.31 |
| AGTAAGACATGGACCGGTTTTCCCGGTAATCCGTATTTGCA (site AGTAAGACTTG) | 2.57 |
| AGTAAGACATGGACCGGTTTTCCCGGTAATCCGTATTTGCC (site AGGAAGACTTG) | 0.00684 |
| AGTAAGACATGGACCGGTTTTCCCGGTAATCCGTATTTGCC (site AGTAAGACTGG) | 2.13 |
| AGTAATCCATGGACCGGTTTTCCCGGTAATCCGTATTTGGT (site AGTAATCCTAC) | 0.00506 |
| AGTACAGCATGGACCGGTTTTCCCGGTAATCCGTATTTGCC (site AGTACAGCTGG) | 2.27 |
| AGTACTACATGGACCGGTTTTCCCGGTAATCCGTATTTGAC (site AGAACTACTGT) | 0.731 |
| AGTACTACATGGACCGGTTTTCCCGGTAATCCGTATTTGAC (site AGCACTACTGT) | 0 |
| AGTACTACATGGACCGGTTTTCCCGGTAATCCGTATTTGAC (site AGGACTACTGT) | 1.71 |
| AGTACTACATGGACCGGTTTTCCCGGTAATCCGTATTTGAC (site AGTACTACTGT) | 1.28 |
| AGTACTGCATGGACCGGTTTTCCCGGTAATCCGTATTTGGT (site AGTACTGCTAC) | 0.745 |
| AGTAGAACATGGACCGGTTTTCCCGGTAATCCGTATTTGAG (site AATAGAACTCT) | 0.806 |
| AGTAGAACATGGACCGGTTTTCCCGGTAATCCGTATTTGAG (site ACTAGAACTCT) | 0.901 |
| AGTAGAACATGGACCGGTTTTCCCGGTAATCCGTATTTGAG (site AGTAGAACTCT) | 1.24 |
| AGTAGAACATGGACCGGTTTTCCCGGTAATCCGTATTTGAG (site ATTAGAACTCT) | 0.418 |
| AGTAGCTCATGGACCGGTTTTCCCGGTAATCCGTATTTGGC (site AGTAGCTCTGC) | 2.79 |
| AGTAGTACATGGACCGGTTTTCCCGGTAATCCGTATTTGGT (site AGTAGTACTAC) | 0.706 |
| AGTAGTGCATGGACCGGTTTTCCCGGTAATCCGTATTTGGT (site AATAGTGCTAC) | 0.246 |
| AGTAGTGCATGGACCGGTTTTCCCGGTAATCCGTATTTGGT (site ACTAGTGCTAC) | 0.699 |

From the supplement of paper PMC11208160
